These results are taken from patent US20260007684A1, “AMIDE DERIVATIVES FOR INHIBITING NLRP3 AND USES THEREOF” (Ventus Therapeutics U.S., Inc., priority 2023, published 2026).

Structures are written as SMILES. Read-outs that look alike come from different tables or passages of the source. Some results are limits rather than exact numbers.

The target of assay [1] is T1, human NLRP3 (Homo sapiens (Human), UniProt Q96P20). The experiment in a line: Scintillation Proximity (SPA) NLRP3 Assay: displacement of 3H-MCC950. It is filed as binding. To be noted: for IC50: read-out: SPA IC50. Background: Scintillation proximity formats need no separation of bound from free tracer.
Assay [2] has as its target T1, human NLRP3. The experiment in a line: Human PBMC NLRP3 Assay (LPS priming, ATP stimulation, cytokine measurement). In kind it is cell-based.
In assay [3] the target is T1, human NLRP3. The experiment in a line: Human Whole Blood (hWB) NLRP3 Assay (LPS/ATP, IL-1β). In kind it is cell-based.
Assay [4] has as its target mouse NLRP3 (Mus musculus (Mouse), UniProt Q8R4B8). The experiment in a line: Mouse Whole Blood (mWB) NLRP3 Assay (LPS/ATP, IL-1b). It is filed as cell-based. The procedure: Reagents: The following reagents were used: blood collection tubes (Heparin); U-bottom 96-well tissue culture (Falcon 353077); HBSS for LPS, ATP and compound dilutions (Gibco 24020-117); and LPS, E. coli serotype 026:B6 (Sigma L-2654).
Mouse IL-1b MSD assay: Blood was drawn from female CD1 mice (9 to 10 weeks) by cardiac puncture. Blood was plated (135 μL) per well in 96-well U-bottom plates. 7.5 μL of 20×LPS (20 μg/mL, final concentration of 1 μg/mL) was added and mixed by gentle pipetting, and the mixture was incubated in a TC incubator for five hours. 7.5 μL of 20× compound or vehicle per well was added and mixed by gentle pipetting. Compounds were diluted 1/50 in HBSS to prepare a 20× dilution curve in […].
The mixture was incubated for 30 minutes in a TC incubator with shaking (450 rpm). 5 μl of 31×ATP (155 mM, final concentration of 5 mM) was added and mixed by gentle pipetting. The mixture was incubated in a TC incubator for 30 minutes with shaking (450 rpm). The plate was centrifuged for 10 minutes at 800×g and −70 μL of plasma was removed. Plasma was frozen if required. Mouse IL-1b was analyzed with IL-1b MSD assay (K152TUK).
Compounds were added 30 minutes before priming the cells with LPS when TNFα was required to be quantified in the cytokine panel to confirm selectivity.

[5] abbreviates: human PBMC, LPS priming, ATP stimulation, read-out: PBMC IC50.
Where [6] appears, read: human whole blood, LPS/ATP, IL-1β, read-out: hWB IC50.
Setting [7] is: mouse whole blood, LPS/ATP, IL-1b.
The mark [8] stands for this setting: PBMC IC50, human PBMC, LPS priming, ATP stimulation.
Where [9] appears, read: hWB IC50, human whole blood, LPS/ATP, IL-1β.

T1 sequence (Q96P20 whole entry): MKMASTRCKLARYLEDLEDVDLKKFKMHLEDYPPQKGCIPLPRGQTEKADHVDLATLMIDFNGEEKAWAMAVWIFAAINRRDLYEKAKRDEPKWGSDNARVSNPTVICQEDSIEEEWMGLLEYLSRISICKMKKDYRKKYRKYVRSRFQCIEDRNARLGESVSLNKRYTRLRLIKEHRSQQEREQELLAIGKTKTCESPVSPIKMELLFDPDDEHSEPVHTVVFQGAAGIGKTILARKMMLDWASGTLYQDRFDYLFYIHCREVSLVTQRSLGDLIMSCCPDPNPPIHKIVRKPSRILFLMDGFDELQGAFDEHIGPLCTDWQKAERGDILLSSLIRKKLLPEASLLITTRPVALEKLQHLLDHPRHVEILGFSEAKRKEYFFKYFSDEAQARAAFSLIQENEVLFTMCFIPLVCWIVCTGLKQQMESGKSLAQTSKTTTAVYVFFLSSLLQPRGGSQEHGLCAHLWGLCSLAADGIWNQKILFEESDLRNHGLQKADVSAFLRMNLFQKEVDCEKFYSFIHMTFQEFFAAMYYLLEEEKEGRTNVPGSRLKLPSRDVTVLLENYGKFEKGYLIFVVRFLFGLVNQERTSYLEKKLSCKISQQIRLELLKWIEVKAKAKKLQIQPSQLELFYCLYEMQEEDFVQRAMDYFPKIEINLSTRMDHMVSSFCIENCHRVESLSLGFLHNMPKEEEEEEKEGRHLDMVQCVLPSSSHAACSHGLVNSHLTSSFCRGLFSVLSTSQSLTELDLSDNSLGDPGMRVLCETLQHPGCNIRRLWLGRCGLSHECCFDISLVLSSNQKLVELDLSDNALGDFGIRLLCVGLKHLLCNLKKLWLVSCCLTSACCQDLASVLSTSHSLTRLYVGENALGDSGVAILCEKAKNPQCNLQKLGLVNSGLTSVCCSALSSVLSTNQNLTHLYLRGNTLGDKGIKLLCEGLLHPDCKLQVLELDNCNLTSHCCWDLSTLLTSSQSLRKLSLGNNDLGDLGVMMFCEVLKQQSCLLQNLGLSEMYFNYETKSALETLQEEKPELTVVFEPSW
Chain of mouse NLRP3 (Q8R4B8 whole entry): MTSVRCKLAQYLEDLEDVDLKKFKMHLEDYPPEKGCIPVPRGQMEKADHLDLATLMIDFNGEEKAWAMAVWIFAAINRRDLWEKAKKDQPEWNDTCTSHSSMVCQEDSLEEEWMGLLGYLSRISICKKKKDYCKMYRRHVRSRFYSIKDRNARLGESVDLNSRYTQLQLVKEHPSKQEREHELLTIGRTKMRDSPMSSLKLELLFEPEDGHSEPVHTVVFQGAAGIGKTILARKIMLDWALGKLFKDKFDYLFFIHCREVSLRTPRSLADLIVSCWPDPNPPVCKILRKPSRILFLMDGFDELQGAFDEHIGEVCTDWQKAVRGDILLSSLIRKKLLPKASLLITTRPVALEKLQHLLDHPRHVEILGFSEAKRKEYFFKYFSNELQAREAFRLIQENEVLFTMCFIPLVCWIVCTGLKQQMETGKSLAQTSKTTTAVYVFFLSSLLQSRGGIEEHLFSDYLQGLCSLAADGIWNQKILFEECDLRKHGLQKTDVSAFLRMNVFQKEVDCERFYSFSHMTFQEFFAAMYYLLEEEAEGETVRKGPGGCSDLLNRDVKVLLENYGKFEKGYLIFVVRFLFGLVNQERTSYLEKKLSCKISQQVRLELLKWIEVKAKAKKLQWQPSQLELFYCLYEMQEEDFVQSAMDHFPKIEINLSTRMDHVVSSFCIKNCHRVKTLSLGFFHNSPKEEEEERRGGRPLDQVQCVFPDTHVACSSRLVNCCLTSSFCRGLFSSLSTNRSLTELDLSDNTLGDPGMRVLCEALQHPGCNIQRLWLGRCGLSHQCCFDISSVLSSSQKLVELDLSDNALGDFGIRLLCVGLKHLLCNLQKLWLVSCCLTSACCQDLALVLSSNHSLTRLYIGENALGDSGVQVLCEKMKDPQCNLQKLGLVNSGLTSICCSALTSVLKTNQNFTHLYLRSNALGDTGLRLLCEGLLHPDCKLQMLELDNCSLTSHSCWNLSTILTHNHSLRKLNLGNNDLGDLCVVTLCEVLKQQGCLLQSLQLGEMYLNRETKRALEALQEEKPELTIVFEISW

For `C[C@@H]1CCN(c2nnn[nH]2)C[C@H](NC(=O)C2(c3ccc(Cl)cc3)CC2)C1` (single isomer, unassigned) [12A*, 1-(4-chlorophenyl)-N-(5-methyl-1-(1H-tetrazol-5-yl)azepan-3-yl)cyclopropane-1-carboxamide], the IC50 (commonly the concentration at which inhibition is half-maximal) in assay [1] (displacement of 3H-MCC950) is under 1 µM; in assay [2] (setting [5]), under 0.01 µM; in assay [3] (setting [6]), under 1 µM; in assay [4] (setting [7]) it was under 1 µM.

For the compound `O=C(N[C@@H]1CC[C@H]2CC[C@@H]1N2c1nnn[nH]1)C1(c2ccc(C(F)(F)F)cc2O)CC1` (single isomer, unassigned) [34C*], the IC50 in assay [1] (displacement of 3H-MCC950) is under 1 µM; in assay [2] (setting [8]), 0.01 to 0.1 µM; in assay [3] (setting [9]) it was under 1 µM; in assay [4] (setting [7]) it was under 1 µM.

Take `O=C(N[C@H]1CN(c2nnn[nH]2)CCC(F)(F)C1)C1(c2ccc(Cl)cc2)CC1` (single isomer, unassigned) [53A*]: the IC50 in assay [1] (displacement of 3H-MCC950), in assay [3] (setting [6]) and in assay [4] (setting [7]) was under 1 µM each time.

`C[C@H]1C[C@@H](NC(=O)C2(c3c(O)cc(C4CC4)cc3C(F)F)CC2)CN(c2nnn[nH]2)C1` (single isomer, unassigned) [97A*]: the IC50 in assay [1] (displacement of 3H-MCC950) was under 1 µM; in assay [2] (setting [5]), 0.1 to 0.5 µM; in assay [4] (setting [7]), under 1 µM.

For the compound `C[C@@H]1C[C@@H](NC(=O)C2(c3ccc(SC(F)F)cc3)CC2)[C@H]2CC[C@@H]1N2c1nnn[nH]1` [85A*, 1-(4-((difluoromethyl)thio)phenyl)-N-((1R,2R,4R,5S)-4-methyl-8-(1H-tetrazol-5-yl)-8-azabicyclo[3.2.1]octan-2-yl)cyclopropane-1-carboxamide], the IC50 in assay [1] (displacement of 3H-MCC950) was under 1 µM; in assay [2] (setting [8]), under 0.01 µM; in assay [3] (setting [9]), under 1 µM.

For `C[C@@H]1C[C@@H](NC(=O)C2(c3ccc(C(F)F)cc3)CC2)[C@H]2CC[C@@H]1N2c1nnn[nH]1` [86A*, 1-(4-(difluoromethyl)phenyl)-N-((1R,2R,4R,5S)-4-methy1-8-(1H-tetrazol-5-yl)-8-azabicyclo[3.2.1]octan-2-yl)cyclopropane-1-carboxamide], the IC50 is under 1 µM in assay [1] (displacement of 3H-MCC950), 0.01 to 0.1 µM in assay [2] (setting [8]) and under 1 µM in assay [3] (setting [9]).

Take `Cc1ccc(C2(C(=O)N[C@@H]3C[C@@H](C)[C@@H]4CC[C@H]3N4c3nnn[nH]3)CC2)cc1` [87A*, N-((1R,2R,4R,5S)-4-methy1-8-(1H-tetrazol-5-yl)-8-azabicyclo[3.2.1]octan-2-yl)-1-(p-tolyl)cyclopropane-1-carboxamide]: the IC50 in assay [1] (displacement of 3H-MCC950) is under 1 µM; in assay [2] (setting [8]) it was 0.01 to 0.1 µM; in assay [3] (setting [6]), 1 to 2 µM.

On to `O=C(N[C@@H]1CCC[C@@H]2CC[C@H]1N2c1nnn[nH]1)C1(c2ccc(C(F)(F)F)cc2O)CC1` [88A*, N-((1R,2R,6R)-9-(1H-tetrazol-5-yl)-9-azabicyclo[4.2.1]nonan-2-yl)-1-(2-hydroxy-4-(trifluoromethyl)phenyl)cyclopropane-1-carboxamide], for which the IC50 was under 1 µM in assay [1] (displacement of 3H-MCC950), under 0.01 µM in assay [2] (setting [8]) and under 1 µM in assay [3] (setting [9]).

For `C[C@H]1CC[C@@H](NC(=O)C2(c3ccc(C(F)(F)F)cc3O)CC2)CN(c2nnn[nH]2)C1` [89A*, 1-(2-hydroxy-4-(trifluoromethyl)phenyl)-N-((3R,6S)-6-methyl-1-(1H-tetrazol-5-yl)azepan-3-yl)cyclopropane-1-carboxamide], the IC50 in assay [1] (displacement of 3H-MCC950) was under 1 µM; in assay [2] (setting [5]), under 0.01 µM; in assay [3] (setting [6]), 2 to 3 µM.

In the case of `C[C@H]1CC[C@H](NC(=O)C2(c3ccc(C(F)(F)F)cc3O)CC2)CN(c2nnn[nH]2)C1` [89B*, 1-(2-hydroxy-4-(trifluoromethyl)phenyl)-N-((3S,6S)-6-methyl-1-(1H-tetrazol-5-yl)azepan-3-yl)cyclopropane-1-carboxamide], the IC50 in assay [1] (displacement of 3H-MCC950) is under 1 µM; in assay [2] (setting [5]), 0.01 to 0.1 µM; in assay [3] (setting [6]), over 3 µM.

`O=C(N[C@@H]1CCC[C@@H]2CC[C@H]1N2c1nnn[nH]1)C1(c2ccc(C3CC3)cc2O)CC1` [93A*, N-((1R,2R,6R)-9-(1H-tetrazol-5-yl)-9-azabicyclo[4.2.1]nonan-2-yl)-1-(4-cyclopropyl-2-hydroxyphenyl)cyclopropane-1-carboxamide]: the IC50 in assay [1] (displacement of 3H-MCC950) is under 1 µM; in assay [2] (setting [8]) it was 0.01 to 0.1 µM; in assay [3] (setting [9]), 2 to 3 µM.

`O=C(Nc1cccc(-c2nnn[nH]2)c1)C1(c2ccc(Cl)cc2)CC1` [Comparative Example B1, N-(3-(1H-tetrazol-5-yl)phenyl)-1-(4-chlorophenyl)cyclopropane-1-carboxamide, reference compound]: the IC50 is 8 µM in assay [1], 0.48 µM in assay [2] (read-out: PBMC IC50) and over 50 µM in assay [4].

With `O=C(N[C@@H]1CCCN(c2nnn[nH]2)C1)C1(c2ccc(Cl)cc2O)CC1` [Compound 15A, (R)-N-(1-(1H-tetrazol-5-yl)piperidin-3-yl)-1-(4-chloro-2-hydroxyphenyl)cyclopropane-1-carboxamide], the IC50 in assay [1] (displacement of 3H-MCC950) is 1 to 10 µM; in assay [1] it was 1.8 µM; in assay [2] (setting [5]), 0.1 to 0.5 µM; in assay [2] (read-out: PBMC IC50) it was 0.2 µM; in assay [3] (setting [6]), under 1 µM; in assay [3] (read-out: hWB IC50), 0.54 µM. The “fold increase in binding activity (SPA IC50)” value in assay [1] (relative to Compound 10A) is listed as over 5 fold. In addition, in assay [2] (relative to Compound 10A), the “fold increase in potency as measured by PBMC IC50” value is on record as over 10 fold. Further, the “fold increase in potency as measured by hWB IC50” value in assay [3] (relative to Compound 10A) is listed as over 13 fold.

In the case of `C[C@H]1C[C@@H](NC(=O)C2(c3ccc(OC(F)(F)F)cc3O)CC2)CN(c2nnn[nH]2)C1` [Compound 17A, 1-(2-hydroxy-4-(trifluoromethoxy)phenyl)-N-((3R,5S)-5-methyl-1-(1H-tetrazol-5-yl)piperidin-3-yl)cyclopropane-1-carboxamide], the IC50 in assay [1] (displacement of 3H-MCC950) was under 1 µM; in assay [1], 0.098 µM; in assay [2] (setting [5]), 0.01 to 0.1 µM; in assay [2] (read-out: PBMC IC50) it was 0.017 µM; in assay [3] (setting [6]), under 1 µM; in assay [3] (read-out: hWB IC50) it was 0.23 µM.

With `C[C@H]1C[C@@H](NC(=O)C2(c3ccc(OC(F)F)cc3O)CC2)CN(c2nnn[nH]2)C1` [Compound 19A, 1-(4-(difluoromethoxy)-2-hydroxyphenyl)-N-((3R,5S)-5-methyl-1-(1H-tetrazol-5-yl)piperidin-3-yl)cyclopropane-1-carboxamide], the values for the IC50 in assay [1] (displacement of 3H-MCC950), in assay [2] (setting [5]) and in assay [3] (setting [6]) were under 1 µM, 0.01 to 0.1 µM and under 1 µM, respectively.

With `Cc1ccc(C2(C(=O)N[C@@H]3C[C@H](C)CN(c4nnn[nH]4)C3)CC2)c(O)c1` [Compound 20A, 1-(2-hydroxy-4-methylphenyl)-N-((3R,5S)-5-methyl-1-(1H-tetrazol-5-yl)piperidin-3-yl)cyclopropane-1-carboxamide], the concentration for half-maximal inhibition (IC50) in assay [1] (displacement of 3H-MCC950) is under 1 µM; in assay [2] (setting [5]), 0.01 to 0.1 µM; in assay [3] (setting [6]), under 1 µM.

For the compound `C[C@H]1C[C@@H](NC(=O)C2(c3ccc(C4CC4)cc3O)CC2)CN(c2nnn[nH]2)C1` [Compound 23A, 1-(4-cyclopropyl-2-hydroxyphenyl)-N-((3R,5S)-5-methyl-1-(1H-tetrazol-5-yl)piperidin-3-yl)cyclopropane-1-carboxamide], the values for the IC50 in assay [1] (displacement of 3H-MCC950), in assay [2] (setting [5]) and in assay [3] (setting [6]) were under 1 µM, 0.01 to 0.1 µM and under 1 µM, respectively.

Consider `C[C@H]1C[C@@H](NC(=O)C2(c3ncc(C(F)(F)F)cc3O)CC2)CN(c2nnn[nH]2)C1` [Compound 25A, 1-(3-hydroxy-5-(trifluoromethyl)pyridin-2-yl)-N-((3R,5S)-5-methyl-1-(1H-tetrazol-5-yl)piperidin-3-yl)cyclopropane-1-carboxamide], for which the IC50 in assay [1] (displacement of 3H-MCC950) was under 1 µM; in assay [2] (setting [5]) it was 0.1 to 0.5 µM; in assay [3] (setting [6]) it was over 3 µM.

Take `Cc1cc(Cl)cc(O)c1C1(C(=O)N[C@@H]2C[C@H](C)CN(c3nnn[nH]3)C2)CC1` [Compound 33A, 1-(4-chloro-2-hydroxy-6-methylphenyl)-N-((3R,5S)-5-methyl-1-(1H-tetrazol-5-yl)piperidin-3-yl)cyclopropane-1-carboxamide]: the IC50 in assay [1] (displacement of 3H-MCC950) was under 1 µM; in assay [2] (setting [5]), 0.01 to 0.1 µM; in assay [3] (setting [6]), over 3 µM.

Consider `O=C(N[C@@H]1CCCN(c2nnn[nH]2)C1)C1(c2ccc(Br)cc2)CC1` [Compound 39A, 1-(4-bromophenyl)-N-[(3R)-1-(1H-tetrazol-5-yl)-3-piperidyl]cyclopropanecarboxamide], for which the figures for the IC50 in assay [1] (displacement of 3H-MCC950), in assay [3] (setting [6]) and in assay [4] (setting [7]) were 1 to 10 µM, 1 to 2 µM and 1 to 2 µM, respectively.

On to `O=C(N[C@@H]1C[C@H](C(F)(F)F)CN(c2nnn[nH]2)C1)C1(c2ccc(Cl)cc2)CC1` [Compound 45A, 1-(4-chlorophenyl)-N-[(3R,5S)-1-(1H-tetrazol-5-yl)-5-(trifluoromethyl)-3-piperidyl]cyclopropanecarboxamide], for which the IC50 was 1 to 10 µM in assay [1] (displacement of 3H-MCC950), 2 to 3 µM in assay [3] (setting [6]) and under 1 µM in assay [4] (setting [7]).
